Experimental data taken from ChEMBL document CHEMBL4190243, “Natural alkaloids as P-gp inhibitors for multidrug resistance reversal in cancer” (Eur J Med Chem, 2017).
Blank lines part the entries; values can stand above or below the compound they belong to.

Assays:
[1] = Tmax in rat at 50 mg/kg, po by LC-MS/MS method; assay type: ADME, organism-based; conditions: in vivo
Homo sapiens [2] = organism: Homo sapiens; test: Inhibition of P-gp in human MCF7/DOX cells assessed as potentiation of doxorubicin-induced cytotoxicity by measuring fold reduction in doxorubicin IC50 at 5 uM; assay type: cell-based
[3] = Half life in patient with advanced stage of cancer at 500 mg/m2 by HPLC method; assay type: ADME, organism-based; conditions: human, in vivo
Homo sapiens [4] = organism: Homo sapiens; test: Inhibition of P-gp in human MCF7/DOX cells assessed as potentiation of doxorubicin-induced cytotoxicity by measuring fold reduction in doxorubicin IC50 at 2.5 uM; assay type: cell-based
Rattus norvegicus [5] = test: AUC (0 to 72 hrs) in rat at 50 mg/kg, po by LC-MS/MS method; assay type: ADME, organism-based; set-up: time < 72 hr, dose 50 mg/kg, route oral; conditions: in vivo
NCI/ADR-RES = test: Potentiation of doxorubicin-induced antitumor activity against human MCF7/ADR cells xenografted in nude mouse assessed as tumor growth inhibition at 30 mg/kg, ip every two days (reference value: -20%); assay type: functional; conditions: 48 h, read-out: TGI
[6] = Potentiation of vincristine-induced antitumor activity against human KBv200 cells xenografted in Balb/c nude mouse assessed as tumor growth inhibition at 30 mg/kg, ip every two days (reference value: 20%); assay type: functional; conditions: 48 h, read-out: TGI
[7] = Potentiation of paclitaxel-induced antitumor activity against human KBv200 cells in xenograft model assessed as tumor growth inhibition at 35 mg/kg, ip (reference value: 13%); assay type: functional; conditions: read-out: TGI
[8] = Cmax in rat at 50 mg/kg, po by LC-MS/MS method; assay type: ADME, organism-based; set-up: dose 50 mg/kg, route oral; conditions: in vivo
[9] = Half life in rat at 50 mg/kg, po by LC-MS/MS method; assay type: ADME, organism-based; conditions: in vivo
[10] = target: T1, ATP-dependent translocase ABCB1 (Homo sapiens, UniProt P08183); test: Inhibition of [125I]IAAP labeling to human MDR1 expressed in baculovirus infected insect cell membranes by electrophoresis method
[11] = target: T1, ATP-dependent translocase ABCB1; test: Displacement of 8-azido[alpha-32P]ATP from human MDR1 expressed in baculovirus infected insect cell membranes by phosphorimaging method
[12] = target: T1, ATP-dependent translocase ABCB1; test: Inhibition of human MDR1 ATPase activity expressed in baculovirus infected insect cells preincubated for 30 mins followed by ATP addition measured after 20 mins by colorimetric method
[13] = Potentiation of vinblastine-induced antitumor activity against human KB-8-5 cells xenografted in Ncr nude mouse assessed as growth inhibition at 0.13 mmol/kg by hallow fiber assay; assay type: functional; conditions: read-out: GI
[14] = Displacement of [3H]vinblastine from P-gp in human KBV1 cell membrane vesicles; assay type: cell membranes
KB-V1 [15] = test: Potentiation of vinblastine-induced antitumor activity against human KBV1 cells xenografted in Ncr nude mouse assessed as growth inhibition at 0.13 mmol/kg by hallow fiber assay; assay type: functional; conditions: read-out: GI
KB-V1 [16] = test: Potentiation of vinblastine-induced antitumor activity against human KBV1 cells xenografted in Ncr nude mouse assessed as growth inhibition at 0.136 mmol/kg by hallow fiber assay; assay type: functional; conditions: read-out: GI
[17] = target: T2, Broad substrate specificity ATP-binding cassette transporter ABCG2 (Homo sapiens, UniProt Q9UNQ0); test: Inhibition of BCRP (unknown origin)
T2 sequence (Q9UNQ0 whole entry): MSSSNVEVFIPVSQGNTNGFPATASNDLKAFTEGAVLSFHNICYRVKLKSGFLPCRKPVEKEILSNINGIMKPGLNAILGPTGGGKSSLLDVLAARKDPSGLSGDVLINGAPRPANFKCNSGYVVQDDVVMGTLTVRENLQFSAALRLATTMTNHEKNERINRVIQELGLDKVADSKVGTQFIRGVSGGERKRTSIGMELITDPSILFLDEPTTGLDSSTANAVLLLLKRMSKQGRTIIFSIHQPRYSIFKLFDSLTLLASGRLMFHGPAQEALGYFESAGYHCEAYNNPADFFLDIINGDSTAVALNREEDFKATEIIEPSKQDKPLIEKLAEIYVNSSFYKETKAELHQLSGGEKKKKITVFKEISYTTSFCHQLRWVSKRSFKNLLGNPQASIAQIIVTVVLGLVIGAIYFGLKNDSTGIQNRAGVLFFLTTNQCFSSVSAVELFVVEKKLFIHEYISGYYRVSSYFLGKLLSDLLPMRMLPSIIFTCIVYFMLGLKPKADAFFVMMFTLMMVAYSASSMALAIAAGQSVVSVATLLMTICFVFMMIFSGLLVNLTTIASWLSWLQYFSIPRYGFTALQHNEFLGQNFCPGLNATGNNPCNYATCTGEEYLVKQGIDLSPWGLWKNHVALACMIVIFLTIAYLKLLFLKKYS

[18] = Inhibition of P-gp in human MCF7/DX1 cells assessed as doxorubicin accumulation after 30 to 40 mins by FACS analysis; assay type: cell-based
[19] = Inhibition of [125I]IAAP labeling to human P-gp expressed in baculovirus infected insect cell membranes after 10 mins
[20] = Inhibition of P-gp in human MCF7/DX1 cells assessed as […] Rh123 accumulation after 30 to 40 mins by FACS analysis; assay type: cell-based
[21] = Inhibition of P-gp in human MCF7/DX1 cells assessed as [3H]daunomycin accumulation after 40 mins by liquid scintillation counting method; assay type: cell-based
[22] = Inhibition of P-gp in human MCF7/DX1 cells assessed as BODIPY-FL-verapamil accumulation after 30 to 40 mins by FACS analysis; assay type: cell-based
KB-V1 [23] = test: Downregulation of P-gp expression in human MDR KBV1 cells after 24 hrs relative to control; assay type: functional
[24] = Inhibition of P-gp ATPase activity in rat AS30-D/COL10 cell plasma membrane vesicles
P388 = test: Potentiation of doxorubicin-induced antitumor activity against mouse P388/DOX25 cells implanted in mouse assessed as increase in mouse survival at 1.6 mg/kg, ip; assay type: functional
[25] = Inhibition of P-gp in rat AS30-D/COL10 cell plasma membrane vesicles assessed as reduction in [3H]VBL transport
Homo sapiens [26] = organism: Homo sapiens; test: Inhibition of P-gp in human Caco2 cells assessed as reduction in digoxin efflux at 4 uM relative to control; assay type: cell-based
MRP2 (ABCC2) = MRP2 (ABCC2) (Homo sapiens, UniProt Q92887); test: Inhibition of MRP2 in human Caco2 cells assessed as reduction in pravastatin sodium efflux at 4 uM relative to control; assay type: cell-based; conditions: Caco-2 cells, probe pravastatin sodium
[27] = Half life in male Sprague-Dawley rat at 50 mg/kg, po by LC-MS/MS method; assay type: ADME, organism-based; conditions: in vivo
[28] = Primary phase half life in healthy human at 30 mg/kg, iv by LC-MS/MS method; assay type: ADME, organism-based; conditions: in vivo, read-out: alphat1/2
[29] = Potentiation of doxorubicin-induced antitumor activity against human KBv200 cells xenografted in Balb/c nude mouse assessed as tumor growth inhibition at 10 mg/kg, ip once daily for 12 days (reference value: 11.6%); assay type: functional; conditions: 288 h, read-out: TGI
Homo sapiens [30] = test: AUC in healthy human at 30 mg/kg, iv by LC-MS/MS method; assay type: ADME, organism-based; conditions: in vivo
[31] = Potentiation of epirubicin-induced antitumor activity against human KBv200 cells in xenograft model assessed as tumor growth inhibition at 10 mg/kg, ip (reference value: 29%); assay type: functional; conditions: read-out: TGI
[32] = Tmax in female Sprague-Dawley rat at 50 mg/kg, po by LC-MS/MS method; assay type: ADME, organism-based; conditions: in vivo
[33] = Cmax in male Sprague-Dawley rat at 50 mg/kg, po by LC-MS/MS method; assay type: ADME, organism-based; set-up: dose 50 mg/kg, route oral; conditions: in vivo
Rattus norvegicus [34] = test: AUC (0 to 72 hrs) in male Sprague-Dawley rat at 50 mg/kg, po by LC-MS/MS method; assay type: ADME, organism-based; set-up: dose 50 mg/kg, time < 72 hr, route oral; conditions: in vivo
[35] = Half life in female Sprague-Dawley rat at 50 mg/kg, po by LC-MS/MS method; assay type: ADME, organism-based; conditions: in vivo
[36] = Terminal phase half life in healthy human at 30 mg/kg, iv by LC-MS/MS method; assay type: ADME, organism-based; conditions: in vivo, read-out: beta t1/2 (converted)
[37] = Cmax in female Sprague-Dawley rat at 50 mg/kg, po by LC-MS/MS method; assay type: ADME, organism-based; set-up: dose 50 mg/kg, route oral; conditions: in vivo
[38] = Tmax in male Sprague-Dawley rat at 50 mg/kg, po by LC-MS/MS method; assay type: ADME, organism-based; conditions: in vivo
[39] = Cytotoxicity against human KBv200 cells after 72 hrs by MTT assay; assay type: functional, cell-based; conditions: KBv200, 72 h
Rattus norvegicus [40] = test: AUC (0 to 72 hrs) in female Sprague-Dawley rat at 50 mg/kg, po by LC-MS/MS method; assay type: ADME, organism-based; set-up: time < 72 hr, dose 50 mg/kg, route oral; conditions: in vivo

T1 sequence (P08183 whole entry): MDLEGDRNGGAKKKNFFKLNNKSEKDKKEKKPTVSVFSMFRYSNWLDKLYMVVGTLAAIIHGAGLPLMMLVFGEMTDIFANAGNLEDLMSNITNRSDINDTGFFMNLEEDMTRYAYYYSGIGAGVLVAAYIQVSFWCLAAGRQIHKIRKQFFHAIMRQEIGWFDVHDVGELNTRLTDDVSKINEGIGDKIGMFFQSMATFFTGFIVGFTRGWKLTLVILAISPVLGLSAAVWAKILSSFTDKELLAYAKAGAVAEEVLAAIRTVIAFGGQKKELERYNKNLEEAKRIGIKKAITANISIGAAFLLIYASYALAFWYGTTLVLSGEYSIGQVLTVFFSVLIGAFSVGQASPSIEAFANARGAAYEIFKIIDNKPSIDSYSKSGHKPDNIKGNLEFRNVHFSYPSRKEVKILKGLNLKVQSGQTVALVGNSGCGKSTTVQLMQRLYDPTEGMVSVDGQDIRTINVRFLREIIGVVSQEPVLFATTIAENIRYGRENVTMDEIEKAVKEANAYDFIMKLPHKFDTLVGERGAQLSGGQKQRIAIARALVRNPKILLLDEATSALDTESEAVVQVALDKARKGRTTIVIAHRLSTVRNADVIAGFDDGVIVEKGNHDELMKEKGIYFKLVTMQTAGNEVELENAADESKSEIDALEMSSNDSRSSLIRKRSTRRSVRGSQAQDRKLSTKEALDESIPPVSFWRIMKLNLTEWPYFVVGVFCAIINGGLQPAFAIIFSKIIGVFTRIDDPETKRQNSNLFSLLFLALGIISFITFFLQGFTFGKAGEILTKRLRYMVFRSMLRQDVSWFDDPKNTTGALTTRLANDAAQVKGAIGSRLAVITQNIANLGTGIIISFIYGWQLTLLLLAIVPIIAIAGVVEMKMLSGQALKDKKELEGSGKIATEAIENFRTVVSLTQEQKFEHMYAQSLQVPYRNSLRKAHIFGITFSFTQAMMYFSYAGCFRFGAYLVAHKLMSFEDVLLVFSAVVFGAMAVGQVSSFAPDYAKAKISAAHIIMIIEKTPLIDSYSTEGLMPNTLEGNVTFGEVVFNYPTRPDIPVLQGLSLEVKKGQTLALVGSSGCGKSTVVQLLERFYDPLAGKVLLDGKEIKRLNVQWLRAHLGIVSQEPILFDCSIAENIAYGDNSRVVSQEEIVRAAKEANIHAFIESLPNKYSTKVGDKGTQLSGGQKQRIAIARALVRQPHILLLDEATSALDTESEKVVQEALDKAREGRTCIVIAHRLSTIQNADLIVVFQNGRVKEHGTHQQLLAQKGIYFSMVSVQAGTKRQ
MRP2 (ABCC2), sequence (Q92887 whole entry): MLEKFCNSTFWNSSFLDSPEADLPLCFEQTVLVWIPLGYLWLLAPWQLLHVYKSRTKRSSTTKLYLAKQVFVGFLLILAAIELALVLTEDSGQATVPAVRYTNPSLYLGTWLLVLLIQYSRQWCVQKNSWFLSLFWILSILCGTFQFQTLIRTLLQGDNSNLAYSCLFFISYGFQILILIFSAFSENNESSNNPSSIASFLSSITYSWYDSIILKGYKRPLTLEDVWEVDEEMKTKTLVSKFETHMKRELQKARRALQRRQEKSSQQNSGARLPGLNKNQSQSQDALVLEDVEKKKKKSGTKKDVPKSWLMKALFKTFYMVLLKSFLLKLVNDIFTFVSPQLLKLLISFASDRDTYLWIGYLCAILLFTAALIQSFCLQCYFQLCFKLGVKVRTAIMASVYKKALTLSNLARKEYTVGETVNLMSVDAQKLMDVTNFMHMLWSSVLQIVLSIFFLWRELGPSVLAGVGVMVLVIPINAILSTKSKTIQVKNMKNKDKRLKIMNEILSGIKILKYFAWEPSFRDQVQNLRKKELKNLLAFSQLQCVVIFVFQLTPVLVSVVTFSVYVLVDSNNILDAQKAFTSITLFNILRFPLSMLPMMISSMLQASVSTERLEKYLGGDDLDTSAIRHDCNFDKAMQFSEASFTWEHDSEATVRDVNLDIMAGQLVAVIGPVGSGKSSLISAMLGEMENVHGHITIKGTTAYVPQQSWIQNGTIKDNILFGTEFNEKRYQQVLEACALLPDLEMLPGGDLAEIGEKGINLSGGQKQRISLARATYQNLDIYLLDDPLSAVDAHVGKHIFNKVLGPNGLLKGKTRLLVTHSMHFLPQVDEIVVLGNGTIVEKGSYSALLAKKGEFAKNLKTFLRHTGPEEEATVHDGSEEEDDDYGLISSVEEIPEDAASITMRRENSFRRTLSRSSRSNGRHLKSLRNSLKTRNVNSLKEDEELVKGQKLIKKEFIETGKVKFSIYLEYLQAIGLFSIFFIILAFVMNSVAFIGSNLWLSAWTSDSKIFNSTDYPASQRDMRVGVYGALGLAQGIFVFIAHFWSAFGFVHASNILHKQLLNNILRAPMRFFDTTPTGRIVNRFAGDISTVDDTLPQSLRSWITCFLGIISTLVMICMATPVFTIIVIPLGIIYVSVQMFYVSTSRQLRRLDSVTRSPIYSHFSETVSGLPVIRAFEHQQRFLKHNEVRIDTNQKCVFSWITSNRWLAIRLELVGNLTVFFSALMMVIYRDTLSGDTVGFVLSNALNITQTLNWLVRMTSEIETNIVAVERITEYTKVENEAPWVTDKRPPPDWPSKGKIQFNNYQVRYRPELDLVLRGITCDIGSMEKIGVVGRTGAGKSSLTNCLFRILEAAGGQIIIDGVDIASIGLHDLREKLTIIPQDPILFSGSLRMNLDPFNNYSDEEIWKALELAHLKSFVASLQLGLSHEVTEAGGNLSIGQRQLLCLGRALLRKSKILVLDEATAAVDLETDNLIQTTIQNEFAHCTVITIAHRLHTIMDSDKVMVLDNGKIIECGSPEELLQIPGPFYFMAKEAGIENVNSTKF

SMILES: COc1ccc2cc1Oc1ccc(cc1)C[C@@H]1c3cc(c(OC)cc3CCN1C)Oc1c(OC)c(OC)cc3c1[C@H](C2)N(C)CC3 [ISOTETRANDRINE]
- Tmax [1]: 6 h
- fold change (FC) (Homo sapiens [2]): 20
- half-life [3]: 120 to 168 h
- fold change (FC) (Homo sapiens [4]): 20
- AUC (Rattus norvegicus [5]): 6279 µg/h/L
- inhibition in vivo at 30 mg/kg (NCI/ADR-RES): 58%
- inhibition in vivo at 30 mg/kg [6]: 62%
- inhibition in vivo at 35 mg/kg [7]: 76%
- Cmax [8]: 237 ng/mL
- half-life [9]: 20 h

SMILES: Nc1ncnc2c1ncn2[C@@H]1O[C@H](COC(=O)c2ccc(S(=O)(=O)F)cc2)[C@@H](O)[C@H]1O
- IC50 [10]: 170 nM
- IC50 [11]: 680 nM
- IC50 [12]: 210 nM

SMILES: COc1cc(/C=C/C(=O)OC2C(O)C3CC(OC(=O)c4cc(OC)c(OC)c(OC)c4)CC2N3C)cc(OC)c1OC (stereo not drawn)
- inhibition in vivo at 130 µmol/kg [13]: ≤ 75%
- Ki [14]: 7300 nM
- inhibition in vivo at 130 µmol/kg (KB-V1 [15]): ≤ 75%
- inhibition in vivo at 136 µmol/kg (KB-V1 [16]): ≤ 77.7%

- IC50 [17]: 12600 nM
SMILES: COC(=O)[C@H]1[C@H]2C[C@@H]3c4[nH]c5cc(OC)ccc5c4CCN3C[C@H]2C[C@@H](OC(=O)c2cc(OC)c(OC)c(OC)c2)[C@@H]1OC [RESERPINE]

- IC50 [18]: 500 to 2000 nM
- IC50 [20]: 800 nM
- IC50 [21]: 500 to 2000 nM
- IC50 [22]: 500 to 2000 nM
SMILES: COc1ccc2c3c1O[C@@H]1C[C@H](OC(=O)CCCCCCCCC(=O)O[C@H]4C=C[C@@]56CN(C)CCc7ccc(OC)c(c75)O[C@H]6C4)C=C[C@]31CN(C)CC2
- IC50 [19]: 500 nM

SMILES: CN[C@@H]1C[C@H]2O[C@@](C)([C@@H]1OC)n1c3ccccc3c3c4c(c5c6ccccc6n2c5c31)C(=O)NC4 [STAUROSPORINE]
- Activity (KB-V1 [23]): 50%

SMILES: C=C[C@]1(C)C[C@@H](OC(=O)CSCCN(CC)CC)[C@]2(C)[C@H](C)CC[C@]3(CCC(=O)[C@H]32)[C@@H](C)[C@@H]1O [TIAMULIN]
- IC50 [24]: 540 nM
- survival at 1.6 mg/kg (P388): 29%
- IC50 [25]: 6200 nM

- inhibition at 4 µM (MRP2 (ABCC2)): > 30%
SMILES: O=C1c2ccccc2-n2c1nc1ccccc1c2=O [TRYPTANTHRIN]
- inhibition (Homo sapiens [26]): > 30%

- half-life [27]: 8.67 h
- half-life [28]: 0.5 h
- AUC (Homo sapiens [30]): 64 µg/h/L
- Tmax [32]: 4.67 h
- Cmax [33]: 607 ng/mL
- AUC (Rattus norvegicus [34]): 6116 µg/h/L
- half-life [35]: 18.2 h
- half-life [36]: 52 h
- Cmax [37]: 835 ng/mL
- Tmax [38]: 3.67 h
- AUC (Rattus norvegicus [40]): 21827 µg/h/L
SMILES: COc1ccc2cc1Oc1ccc(cc1)C[C@@H]1c3cc(c(OC)cc3CCN1C)Oc1c(OC)c(OC)c(Br)c3c1[C@H](C2)N(C)CC3
- inhibition in vivo at 10 mg/kg [29]: 39%
- inhibition in vivo at 10 mg/kg [31]: 48%
- IC50 [39]: 2000 nM
